# Source: PubChem BioAssay AID504393 (Southern Research Specialized Biocontainment Screening …, 2011)
# Calls of active or inactive are those of the source. No rule for the calls is given here.
# System: MAGI cells cytotoxicity, % cell control, 2% serum
# Test: MAGI cell cytotoxicity in HIV-1 antiviral work, dose response, cytotoxicity control for HIV-1 antiviral lead project, MAGI cells, 2% serum, TC50 (AID 504393)
row,SMILES,TC50
1,CS(=O)(=O)C1=NSC2=NC(=O)/C(=C\c3cccn3-c3ccc(F)cc3)C(=N)N21,> 100 µM (inactive)
2,CCOC(=O)C1=C(C)N=c2sc(=Cc3ccc(OCC(=O)O)cc3)c(=O)n2C1c1ccccc1 (centres undefined),> 100 µM (inactive)
3,Nc1sc2ccccc2[n+]1Cc1ccc(C(=O)O)cc1,> 100 µM (inactive)
4,COc1ccc(CCn2c(O)cc3nn(-c4nc5ccccc5s4)c(=O)c-3c2C)cc1,> 100 µM (inactive)
5,COc1cccc(C2C(C(=O)Nc3ccccc3)=C(C)N=c3sc(=Cc4ccc(OCC(=O)O)cc4)c(=O)n32)c1 (centres undefined),> 100 µM (inactive)
6,O=C(O)c1ccc([C@@H]2Nc3ccc(S(=O)(=O)Nc4cccc5ccccc45)cc3[C@@H]3C=CC[C@@H]32)cc1,54.8 µM
7,CCOC(=O)C1=C(C)N=c2sc(=Cc3ccc(OCC(=O)O)cc3)c(=O)n2C1c1cc(OC)c(OC)c(OC)c1 (centres undefined),> 100 µM (inactive)
8,O=C(O)CCCN1C(=O)/C(=C/c2ccc(-c3cccc(C(F)(F)F)c3)o2)SC1=S,> 100 µM (inactive)
9,Cc1ccc(-c2ccc(/C=C3\SC(=S)N(CCCC(=O)O)C3=O)o2)cc1,> 100 µM (inactive)
10,Cc1c2c(=O)n(-c3nc4ccccc4s3)nc-2cc(O)n1Cc1ccc(F)cc1,70.4 µM
11,CCOc1ccc(-n2cccc2/C=C2/C(=N)N3C(=NC2=O)SN=C3S(C)(=O)=O)cc1,42.6 µM
12,CS(=O)(=O)C1=NSC2=NC(=O)/C(=C\c3cccn3-c3cccc(C(F)(F)F)c3)C(=N)N21,79.5 µM
13,CCOC(=O)C1=C(C)N=c2sc(=Cc3ccc(OCC(=O)O)cc3)c(=O)n2C1c1ccc(OC)cc1OC (centres undefined),> 100 µM (inactive)
14,Cc1ccc(-n2cccc2/C=C2/C(=N)N3C(=NC2=O)SN=C3S(C)(=O)=O)cc1C,48.9 µM
15,Cc1c2c(=O)n(-c3nc4ccccc4s3)nc-2cc(O)n1CCC(C)C,65.1 µM
16,CCOC(=O)C1=C(c2ccccc2)N=c2s/c(=C\c3ccc(OCC(=O)O)cc3)c(=O)n2C1c1cccc(OC)c1 (centres undefined),57.5 µM
17,O=C(O)CCC(C(=O)O)N1C(=O)/C(=C\c2ccco2)SC1=S (centres undefined),> 100 µM (inactive)
18,COc1ccc(-n2cccc2/C=C2/C(=N)N3C(=NC2=O)SN=C3S(C)(=O)=O)cc1Cl,42.4 µM
19,Cc1c2c(=O)n(-c3nc4ccccc4s3)nc-2cc(O)n1CCc1ccc(O)cc1,37.6 µM
20,O=C(O)CCCN1C(=O)/C(=C/c2ccc(-c3ccc(Cl)c(Cl)c3)o2)SC1=S,11.7 µM

row,SMILES,TC50
1,CS(=O)(=O)C1=NSC2=NC(=O)/C(=C\c3cccn3-c3ccc(Cl)c(Cl)c3)C(=N)N21,56.7 µM
2,CCc1ccc(-n2cccc2/C=C2/C(=N)N3C(=NC2=O)SN=C3S(C)(=O)=O)cc1,49.7 µM
3,Cc1c2c(=O)n(-c3nc4ccccc4s3)nc-2cc(O)n1Cc1ccccc1Cl,82 µM
4,CS(=O)(=O)C1=NSC2=NC(=O)/C(=C\c3cccn3-c3cc(Cl)cc(Cl)c3)C(=N)N21,36.5 µM
5,Cc1c2c(=O)n(-c3nc4ccccc4s3)nc-2cc(O)n1Cc1ccncc1,85.9 µM
6,COc1ccccc1Cn1c(O)cc2nn(-c3nc4ccccc4s3)c(=O)c-2c1C,45.7 µM
7,CCOC(=O)C1=C(C)N=c2s/c(=C\c3ccc(OCC(=O)O)cc3)c(=O)n2C1c1ccc(OC)c(OCC)c1 (centres undefined),> 100 µM (inactive)
8,CC1=C(C(=O)OC(C)C)C(c2ccc(Cl)cc2)n2c(s/c(=C\c3ccc(OCC(=O)O)cc3)c2=O)=N1 (centres undefined),> 100 µM (inactive)
9,O=C(O)CCCN1C(=O)/C(=C/c2cc3ccccc3o2)SC1=S,83.6 µM
10,COc1ccc(Cn2c(O)cc3nn(-c4nc5ccccc5s4)c(=O)c-3c2C)cc1,56.3 µM
11,COc1ccc(-c2ccc(/C=C3\SC(=S)N(CCCC(=O)O)C3=O)o2)cc1,> 100 µM (inactive)
12,O=C(O)CCCN1C(=O)/C(=C\c2ccc(-c3cccc(Cl)c3)o2)SC1=S,40 µM
13,CS(=O)(=O)C1=NSC2=NC(=O)/C(=C\c3cccn3-c3cccc(Cl)c3)C(=N)N21,> 100 µM (inactive)
14,Cc1c2c(=O)n(-c3nc4ccccc4s3)nc-2cc(O)n1Cc1cccnc1,99.2 µM
15,O=C(O)c1ccc(C[n+]2c(-c3ccccc3)csc2Nc2ccccc2)cc1,80.6 µM
16,COc1cccc(-n2cccc2/C=C2/C(=N)N3C(=NC2=O)SN=C3S(C)(=O)=O)c1,57.6 µM
17,CCc1ccc(-c2ccc(/C=C3\SC(=S)N(CCCC(=O)O)C3=O)o2)cc1,> 100 µM (inactive)
18,CCOC(=O)C1=C(C)N=c2sc(=Cc3ccc(OCC(=O)O)cc3)c(=O)n2C1c1ccccc1OC (centres undefined),> 100 µM (inactive)
19,CCOC(=O)C1=C(C)N=c2s/c(=C\c3ccc(OCC(=O)O)cc3)c(=O)n2C1c1ccc(Cl)cc1 (centres undefined),> 100 µM (inactive)
